Data: PMC5610175, “The Kinetochore Receptor for the Cohesin Loading Complex” (Cell, 2017)
Non-standard residues stand in square brackets, D forms with d. Residues, ends and D or L forms follow the SMILES beside them. No end group written: not given here. pT = C[C@@H](OP(=O)(O)O)[C@H](N)C(=O)O; pS = N[C@@H](COP(=O)(O)O)C(=O)O

Experiments:
[1] = system: analog-sensitive DDK (Cdc7-AS3/Dbf4); assay: DDK activity assay: phosphate transfer to Ctf19-Mcm21 by analog-sensitive DDK; type: biochemical, S. cerevisiae; settings: Ctf19-Mcm21 substrate, γ-^32[P]-ATP, one hour at 30°C, autoradiography, similar to those that inhibit kinase activity in vivo (Wan et al., 2006)
Experimental: Figure S2 Determinants of Ctf19 Phosphorylation by DDK, Related to Figure 1 (A) Products of phosphorylation reactions containing Ctf19-Mcm21, analog-sensitive DDK, γ-^32[P]-ATP, and increasing concentrations of PP1. (B) Reactions carried out as in panel A, except wild-type DDK was used as in Figure 1B. After phosphorylation, reactions were subjected to a brief cleavage reaction by incubation with trypsin (top, autoradiography). Identical cleavage reactions were carried out in the absence of DDK and ATP to identify Ctf19-Mcm21 cleavage fragments (bottom; Coomassie). A schematic of the cleavage reaction is shown below (PDB: 3ZXU). (C) Phosphorylation of mutant Ctf19-Mcm21 complexes by purified DDK. Phosphorylation reactions were carried out as in panel A except that PP1 was not included. Substrates are indicated below. […] Reactions were carried out as in (B) in the presence or absence of an equimolar amount of purified Ctf3 complex.
An S. cerevisiae strain in which Cdc7 has been tagged at its C terminus with a TAP tag (calmodulin binding peptide – TEV site – tandem Protein A tags) was grown to an optical density (A600) of 2 in 12 l of yeast extract peptone dextrose (YPD) medium. […]
For phosphorylation reactions, purified DDK was concentrated to approximately 20uM as determined by absorbance at 280nm. […] Reaction products were analyzed by SDS-PAGE and autoradiography.

[2] = biological target: T1, Scc2^1-181-Scc4 (WT) (Saccharomyces cerevisiae, UniProt P40090+Q04002); assay: Peptide binding to Scc2^1-181-Scc4 WT by biolayer interferometry; parameters: species or system budding yeast; settings: for binding to Scc2^1–181-Scc4 in vitro (in words): Scc2^1–181-Scc4 WT
T1 construct: made in house; host or cells: bacteria (E. coli is stated only for the Ctf19 complex proteins)
T1 sequence (P40090 1-624): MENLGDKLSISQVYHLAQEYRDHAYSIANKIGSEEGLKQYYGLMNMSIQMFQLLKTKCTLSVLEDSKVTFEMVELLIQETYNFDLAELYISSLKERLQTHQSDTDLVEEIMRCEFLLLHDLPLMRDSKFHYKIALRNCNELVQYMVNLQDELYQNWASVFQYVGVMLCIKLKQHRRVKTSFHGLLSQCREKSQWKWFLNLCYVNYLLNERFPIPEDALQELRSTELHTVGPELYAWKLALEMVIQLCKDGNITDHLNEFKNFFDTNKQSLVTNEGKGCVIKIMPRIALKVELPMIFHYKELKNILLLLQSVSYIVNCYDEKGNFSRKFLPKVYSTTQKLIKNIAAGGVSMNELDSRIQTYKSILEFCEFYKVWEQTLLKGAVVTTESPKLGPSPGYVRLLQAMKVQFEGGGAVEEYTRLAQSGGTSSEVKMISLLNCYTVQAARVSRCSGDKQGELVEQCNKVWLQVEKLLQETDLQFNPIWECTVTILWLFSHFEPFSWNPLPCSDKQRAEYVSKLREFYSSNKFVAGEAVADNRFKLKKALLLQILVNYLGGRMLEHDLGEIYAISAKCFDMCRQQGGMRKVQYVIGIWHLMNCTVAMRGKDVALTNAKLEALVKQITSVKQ
T1 sequence (Q04002 1-181 partner limits assumed): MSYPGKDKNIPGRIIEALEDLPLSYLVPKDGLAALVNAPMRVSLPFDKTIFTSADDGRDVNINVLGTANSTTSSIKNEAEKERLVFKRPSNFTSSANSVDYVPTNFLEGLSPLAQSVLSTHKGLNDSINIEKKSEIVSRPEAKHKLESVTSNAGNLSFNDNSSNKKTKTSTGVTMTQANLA
Experimental: Figure S5 Synthetic Ctf19^1–11 binds Scc2^1–181-Scc4, and Binding Requires Phosphorylation of Ctf19 Residue T4 or S5, Related to Figure 6 Experiments were carried out as in Figure 6B (error bars – +/−SD for three independent experiments, obscured by data points where not visible). m3 refers to immobilized Scc2^1-181-Scc4^m3. Ctf19 peptides and Scc2^1-181-Scc4 complexes used are listed in the table along with measured dissociation constants (Kd; SE – standard error for best-fit binding curve; single site, specific binding; Phos. – phosphorylated residues). TEXT PRINTED IN THE PICTURE: Ctf19 residues 1-11; Phos. none: Kd(±SE)(μM): n.d. (Scc2^1-181-Scc4: WT) | Ctf19 residues 1-11; Phos. pT4: Kd(±SE)(μM): 1757(6000+) (Scc2^1-181-Scc4: WT) | Ctf19 residues 1-11; Phos. pS5: Kd(±SE)(μM): 122(66) (Scc2^1-181-Scc4: WT); Kd(±SE)(μM): n.d. (Scc2^1-181-Scc4: m3) | Ctf19 residues 1-6; Phos. pT4;pS5: Kd(±SE)(μM): 22.6(3.0) (Scc2^1-181-Scc4: WT)
We used biolayer interferometry (ForteBio) to quantify the interaction between Scc2^1-181–Scc4 and synthetic peptides derived from the N-terminal region of Ctf19 (Tufts University Core Facility, Boston). For all steps, we used octet buffer (40mM HEPES, pH 7.5; 200mM NaCl; 1mM DTT) and low-volume 96-well opaque black plates. […] This step was allowed to reach saturation before a final incubation in octet buffer.
To derive binding curves, we first applied a linear correction so that all association steps began at zero response units. We then performed a linear drift correction by subtracting the signal for Scc2^1-181-Scc4 incubated in buffer alone during the association step (no peptide, linear subtraction for each time point, independent control for each experiment). We then applied a loading factor to correct for the Scc2^1-181-Scc4 immobilization efficiency for each well. From these normalized association curves, we extracted maximum responses for each well by averaging the signal across the final ten seconds of the association step. We performed these operations for three independent experiments, performed with new tips and samples, for each data point. […] Data points represent mean maximum responses, and error bars show the standard deviation for the three experiments. Fits were determined using GraphPad Prism software assuming a single specific binding site.

[3] = system: centromeric Scc2 in ctf3Δ cells expressing DBF4-FRB and CTF19-FKBP12; assay: Artificial tethering of Dbf4-FRB to Ctf19-FKBP12: centromeric Scc2 localization by ChIP-qPCR; type: cell-based, budding yeast; settings: rapamycin 1 μM, 2.5 hr, nocodazole and benomyl, versus DMSO, at least four independent experiments
Experimental: (F) Scc2 localization was assessed by ChIP-qPCR in the presence or absence of DDK tethering, CTF3, and Ctf19 phosphorylation sites. Wild-type (AM21613), ctf19-9A (AM21681), ctf19-2A (AM22360), ctf3Δ (AM21614), ctf19-9A ctf3Δ (AM21617), ctf19-2A ctf3Δ (AM22672), and control (AM21486) strains, all expressing DBF4-FRB and CTF19-FKBP12, were arrested in G1 for 3 hr before release into medium containing nocodazole, benomyl, and either DMSO (no DDK tethering) or rapamycin (DDK tethering; 1 μM) for 2.5 hr. Mean values of at least four independent experiments are shown. Error bars indicate SE (^∗p < 0.05; ^∗∗p < 0.01; Student’s t test, unpaired, two-tails; ns, not significant).
To artificially tether Dbf4 to the kinetochores, Dbf4 was tagged with FRB (pFA6a-FRB-KanMX6), and CTF19, ctf19-9A and ctf19-2A were tagged with FKBP12-TRP1 (pFA6a-FKBP12-TRP1). Proteins were tagged at their C-termini by one-step cassette integrations at their original gene loci as previously described ([Haruki et al., 2008]). Yeast strains for these experiments also carried TOR1-1, which confers rapamycin resistance, and the fpr1Δ mutation. Tethering of FRB and FKBP12 fusion proteins was induced by addition of rapamycin to the medium at a final concentration of 1 μM. For control cultures, an equal volume of DMSO was added instead. […]

[4] = biological target: T2, Scc2^1–181-Scc4 complex, wild type, tagged (6His-FLAG-Scc2 1-181; 6His-Scc4) (S. cerevisiae, UniProt Q04002 1-181; P40090 1-624); assay: BLI; phosphorylated T4; SE 6000+
T2 chain 1: T1 sequence (Q04002 1-181 partner limits assumed)
T2 chain 2: T1 sequence (P40090 1-624)

[5] = biological target: T2, Scc2^1–181-Scc4 complex, wild type, …; assay: BLI; phosphorylated S5
[6] = biological target: T3, Scc4, as in the crystallised Scc2^1–181-Scc4 complex (S. cerevisiae, UniProt P40090 1-624); assay: crystal structure; TEV-cleaved Scc2 1-181-Scc4 mixed with Ctf19 1-6 diphosphorylated peptide at 1:1.8; 8% PEG 4,000, 80mM PIPES pH 6, 18°C; space group P6_2, 3.19Å; settings: both partners purified
T3 construct: Scc4, budding yeast cohesin loader subunit; Single chain of m8, for the pairs within the structure; not shown: 6His, N-terminal, cleaved
T3 sequence: T1 sequence (P40090 1-624)

[7] = biological target: T4, Scc2^1–181-Scc4 complex, wild type, tagged (6His-FLAG-Scc2 1-181; 6His-Scc4) (S. cerevisiae, UniProt Q04002 1-181; P40090 1-624); assay: BLI; ForteBio; 6His-tagged Scc2 1-181-Scc4 captured on NiNTA tips, Ctf19 peptides in solution at varying concentrations; 40mM HEPES pH 7.5, 200mM NaCl, 1mM DTT; steady-state responses, single specific site fit (Prism); three independent experiments; settings: both partners purified
T4 construct: Scc4, budding yeast cohesin loader subunit; source: recombinant, expressed in bacteria, purified; not shown: 6His, N-terminal, kept; FLAG, N-terminal, kept
T4 sequence 1: T1 sequence (Q04002 1-181 partner limits assumed)
T4 sequence 2: T1 sequence (P40090 1-624)

CC(C)(C)n1nc(-c2cccc3ccccc23)c2c(N)ncnc21 [PP1]
concentration at which phosphate transfer to Ctf19 was inhibited [1]: ~25 µM

MDFTSDTTNSH [Ctf19 residues 1-11; Phos. none, unmodified synthetic Ctf19^1–11 peptide]
binding to Scc2^1–181-Scc4 in vitro (in words) ([2]; pH 7.5, listed as unmodified Ctf19^1–11): did not interact with Scc2^1–181-Scc4
binding to Scc2^1–181-Scc4 in vitro (in words) ([2]; pH 7.5, listed as unphosphorylated peptide): did not

CSCC[C@H](N)C(=O)N[C@@H](CC(=O)O)C(=O)N[C@@H](Cc1ccccc1)C(=O)N[C@H](C(=O)N[C@@H](COP(=O)(O)O)C(=O)N[C@@H](CC(=O)O)C(=O)O)[C@@H](C)OP(=O)(O)O [Ctf19 residues 1-6; Phos. pT4;pS5] (HELM PEPTIDE1{M.D.F.[C[C@@H](OP(=O)(O)O)[C@H](N[*:1])C(=O)[*:2]].[O=C([C@H](COP(=O)(O)O)N[*:1])[*:2]].D}$$$$V2.0)
Kd ([2]; immobilized Scc2^1-181-Scc4 WT on NiNTA tips, 40mM HEPES, pH 7.5, 200mM NaCl, 1mM DTT, three independent experiments, SE for best-fit binding curve, single site, specific binding): 22.6 µM

MDFpTSDTTNSH [Ctf19 residues 1-11; Phos. pT4, synthetic Ctf19^1–11 peptide phosphorylated at T4]
binding to Scc2^1–181-Scc4 in vitro (in words) ([2]; pH 7.5): detectable binding

CO[C@H]1C[C@@H]2CC[C@@H](C)[C@@](O)(O2)C(=O)C(=O)N2CCCC[C@H]2C(=O)O[C@H]([C@H](C)C[C@@H]2CC[C@@H](O)[C@H](OC)C2)CC(=O)[C@H](C)/C=C(\C)[C@@H](O)[C@@H](OC)C(=O)[C@H](C)C[C@H](C)/C=C/C=C/C=C/1C [rapamycin]
effect on Ctf3 requirement for centromeric Scc2 localization (in words) [3]: bypassed the Ctf3 requirement

MDF[pT]SDTTNSH [Synthetic Ctf19^1–11 peptide phosphorylated at T4 (MDFpTSDTTNSH)]
Kd [4]: 1.76 mM

MDFT[pS]DTTNSH [Synthetic Ctf19^1–11 peptide phosphorylated at S5 (MDFTpSDTTNSH)]
Kd [5]: 122 µM

B1: Scc2^1–181, as in the crystallised Scc2^1–181-Scc4 complex (domain or fragment, S. cerevisiae, UniProt Q04002 1-181, looked up)
chain: T1 sequence (Q04002 1-181 partner limits assumed)
notes: Single chain of m8, for the pairs within the structure; also called Scc2n; source: recombinant, purified with Scc4, tags cleaved with TEV protease; not shown: 6His, N-terminal, cleaved
binding result [6]: binds

B2: Synthetic Ctf19^1–6 peptide phosphorylated at T4 and S5 (MDFpTpSD) (peptide)
peptide: MDF[pT][pS]D
notes: Ctf19 residues 1-6, budding yeast; also called phosphorylated Ctf19^1–6; Ctf19^1-6 diphosphorylated peptide; source: synthetic peptide (Tufts Univ. Core Facility)
Kd [7]: ~23 µM
